Measurements: PubChem BioAssay (NCI)
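Growth conditions: 96-well plates. Treatment: test compound, 48 hours, 5 concentrations. Analysis: linear interpolation between bracketing concentrations; unreached endpoints set to highest concentration. GI50 = concentration required for 50% inhibition of growth. TGI is the concentration that stops growth completely.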

Tests used:
Assay in all cases: inhibition of tumour cell growth, NCI panel, 48 h
[1] = test system: NCI/ADR-RES ovarian
[2] = test system: SK-OV-3 ovarian
[3] = test system: RPMI-8226 leukemia
[4] = test system: NCI-H460 lung
[5] = test system: OVCAR-5 ovarian
[6] = test system: RXF 393 renal
[7] = test system: SK-MEL-5 melanoma
[8] = test system: UACC-257 melanoma
[9] = test system: SW-620 colon
[10] = test system: EKVX NSCLC
[11] = test system: OVCAR-4 ovarian
[12] = test system: M14 melanoma
[13] = test system: HCT-116 colon
[14] = test system: CAKI-1 renal
[15] = test system: OVCAR-3 ovarian
[16] = test system: U251 CNS
[17] = test system: TK-10 renal
[18] = test system: SF-295 CNS
[19] = test system: HCT-15 colon
[20] = test system: A549 NSCLC
[21] = test system: MDA-MB-231 breast
[22] = test system: K-562 leukemia
[23] = test system: HS 578T breast
[24] = test system: SF-268 CNS
[25] = test system: MOLT-4 leukemia
[26] = test system: T-47D breast
[27] = test system: SK-MEL-28 melanoma
[28] = test system: HCC-2998 colon
[29] = test system: 786-0 renal
[30] = test system: NCI-H226 lung
[31] = test system: MDA-MB-435
[32] = test system: SN12C renal
[33] = test system: UO-31 renal
[34] = test system: KM12 colon
[35] = test system: SK-MEL-2 melanoma
[36] = test system: NCI-H23 lung
[37] = test system: OVCAR-8 ovarian
[38] = test system: MCF7 breast
[39] = test system: ACHN renal
[40] = test system: DU-145 prostate
[41] = test system: SNB-75 CNS
[42] = test system: MALME-3M melanoma
[43] = test system: CCRF-CEM leukemia
[44] = test system: NCI-H522 lung
[45] = test system: HL-60(TB) leukemia
[46] = test system: LOX IMVI melanoma
[47] = test system: SR leukemia
[48] = test system: HOP-92 NSCLC
[49] = test system: A498 renal
[50] = test system: COLO 205 colon
[51] = test system: SNB-19 CNS
[52] = test system: IGROV1 ovarian
[53] = test system: UACC-62 melanoma
[54] = test system: SF-539 CNS
[55] = test system: HOP-62 NSCLC
[56] = test system: PC-3 prostate
[57] = test system: BT-549 breast
[58] = test system: HT29 colon
[59] = test system: MDA-N

## O=C(NNc1nc2cc(F)ccc2n2c(CN3CCOCC3)ccc12)c1ccccc1
[1]
  GI50: 211 nM
  TGI: 2370 nM
[2]
  GI50: 405 nM
  TGI: 3.39 µM
[3]
  GI50: 263 nM
  TGI: 2600 nM
[4]
  GI50: 72.4 nM
  TGI: 1320 nM
[5]
  GI50: 474 nM
  TGI: 3.45 µM
[6]
  GI50: 363 nM
  TGI: 2060 nM
[7]
  GI50: 438 nM
  TGI: 2060 nM
[8]
  GI50: 456 nM
  TGI: 3.85 µM
[9]
  GI50: 330 nM
  TGI: 2110 nM
[10]
  GI50: 142 nM
  TGI: 1700 nM
[11]
  GI50: 152 nM
  TGI: 1390 nM
[12]
  GI50: 173 nM
  TGI: 1260 nM
[13]
  GI50: 139 nM
  TGI: 1380 nM
[14]
  GI50: 223 nM
  TGI: 1500 nM
[15]
  GI50: 242 nM
  TGI: 1650 nM
[16]
  GI50: 207 nM
  TGI: 2190 nM
[17]
  GI50: 276 nM
  TGI: 7.07 µM
[18]
  GI50: 181 nM
  TGI: 1520 nM
[19]
  GI50: 57.7 nM
  TGI: 1410 nM
[20]
  GI50: 303 nM
  TGI: 2250 nM
[21]
  GI50: 443 nM
  TGI: 2450 nM
[22]
  GI50: 336 nM
  TGI: 4.21 µM
[23]
  GI50: 1510 nM
  TGI: 8.05 µM
[24]
  GI50: 243 nM
  TGI: 2690 nM
[25]
  GI50: 175 nM
  TGI: 2.18 µM
[26]
  GI50: 360 nM
  TGI: 2240 nM
[27]
  GI50: 290 nM
  TGI: 1780 nM
[28]
  GI50: 569 nM
  TGI: 3.07 µM
[29]
  GI50: 305 nM
  TGI: 1980 nM
[30]
  GI50: 450 nM
  TGI: 2400 nM
[31]
  GI50: 603 nM
  TGI: 2400 nM
[32]
  GI50: 399 nM
  TGI: 2180 nM
[33]
  GI50: 57.4 nM
  TGI: 1300 nM
[34]
  GI50: 369 nM
  TGI: 2450 nM
[35]
  GI50: 1040 nM
  TGI: 8.06 µM
[36]
  GI50: 567 nM
  TGI: 2700 nM
[37]
  GI50: 321 nM
  TGI: 7.66 µM
[38]
  GI50: 219 nM
  TGI: 1310 nM
[39]
  GI50: 79 nM
  TGI: 1410 nM
[40]
  GI50: 358 nM
  TGI: 4.78 µM
[41]
  GI50: 300 nM
  TGI: 3.63 µM
[42]
  GI50: 379 nM
  TGI: 1810 nM
[43]
  GI50: 97.8 nM
  TGI: 4.44 µM
[44]
  GI50: 369 nM
  TGI: 3.52 µM
[45]
  GI50: 250 nM
  TGI: 931 nM
[46]
  GI50: 119 nM
  TGI: 1430 nM
[47]
  GI50: 63.9 nM
[48]
  GI50: 791 nM
  TGI: 2870 nM
[49]
  GI50: 495 nM
  TGI: 2260 nM
[50]
  GI50: 261 nM
  TGI: 1560 nM
[51]
  GI50: 311 nM
  TGI: 2270 nM
[52]
  GI50: 139 nM
  TGI: 1470 nM
[53]
  GI50: 244 nM
  TGI: 1140 nM
[54]
  GI50: 273 nM
  TGI: 1390 nM
[55]
  GI50: 117 nM
  TGI: 4.03 µM
[56]
  GI50: 339 nM
  TGI: 3.05 µM
[57]
  GI50: 559 nM
  TGI: 6.57 µM
[58]
  GI50: 449 nM
  TGI: 7.48 µM

## O=S(=O)(O)c1cc(Cl)c(O)c2ncc(Cl)cc12
[1]
  TGI: > 100000 nM
[3]
  TGI: > 100000 nM
[4]
  TGI: > 100000 nM
[5]
  TGI: > 100 µM
[6]
  TGI: > 100000 nM
[7]
  TGI: > 100000 nM
[8]
  TGI: > 100 µM
[9]
  TGI: > 100000 nM
[10]
  TGI: > 100000 nM
[11]
  TGI: > 100000 nM
[12]
  TGI: > 100000 nM
[13]
  TGI: > 100000 nM
[14]
  TGI: > 100000 nM
[15]
  TGI: > 100000 nM
[59]
  TGI: > 100 µM
[16]
  TGI: > 100000 nM
[18]
  TGI: > 100000 nM
[19]
  TGI: > 100000 nM
[20]
  TGI: > 100000 nM
[21]
  TGI: > 100000 nM
[22]
  TGI: > 100 µM
[25]
  TGI: 66.4 µM
[26]
  TGI: > 100000 nM
[27]
  TGI: > 100000 nM
[28]
  TGI: > 100 µM
[29]
  TGI: > 100000 nM
[30]
  TGI: > 100000 nM
[31]
  TGI: > 100000 nM
[32]
  TGI: > 100000 nM
[33]
  TGI: > 100000 nM
[34]
  TGI: > 100000 nM
[35]
  TGI: > 100 µM
[36]
  TGI: > 100000 nM
[37]
  TGI: > 100 µM
[38]
  TGI: > 100000 nM
[39]
  TGI: > 100000 nM
[40]
  TGI: > 100 µM
[41]
  TGI: > 100 µM
[43]
  TGI: > 100 µM
[46]
  TGI: > 100000 nM
[47]
  TGI: > 100 µM
[48]
  TGI: > 100000 nM
[49]
  TGI: > 100000 nM
[50]
  TGI: > 100000 nM
[51]
  TGI: > 100000 nM
[52]
  TGI: > 100000 nM
[53]
  TGI: > 100000 nM
[54]
  TGI: > 100000 nM
[55]
  TGI: > 100 µM
[56]
  TGI: > 100 µM
[57]
  TGI: > 100 µM
[58]
  TGI: > 100 µM
